Test results published in article PMC4887910, “A synthetic kisspeptin analog that triggers ovulation and advances puberty” (Scientific Reports, 2016).
“Also recorded” adds a separate entry of the source. Like-named read-outs stand apart in the source and are kept apart here. Starred links: 1 amine or outer side, 2 acyl side, 3 side chain; linkers in the order of their positions; H or OH if unused. Non-standard residues stand in square brackets, D forms with d. Residues, ends and D or L forms follow the SMILES beside them. No end group written: not given here. *: point of attachment. Glyψ(1,4-Tz)Leu = CC(C)C[C@@H](C(=O)[*:2])n1cc(CN[*:1])nn1; γGlu = O=C(O)[C@H](CCC(=O)[*:2])N[*:1]; Arg(Me) = CNC(=N)NCCC[C@H](N)C(=O)O; Palmitoyl = CCCCCCCCCCCCCCCC(=O)*

Tests used:
hKiSS1R = biological target: T1, hKiSS1R (Homo sapiens, UniProt Q969F8); test: intracellular Ca2+ mobilization assay (Fluo4 NW) in KiSS1R-transfected HEK293A cells; type: cell-based; settings: for EC50: SEM
T1 construct: expressed in transfected cells; host or cells: HEK293A
T1 sequence (Q969F8 whole entry): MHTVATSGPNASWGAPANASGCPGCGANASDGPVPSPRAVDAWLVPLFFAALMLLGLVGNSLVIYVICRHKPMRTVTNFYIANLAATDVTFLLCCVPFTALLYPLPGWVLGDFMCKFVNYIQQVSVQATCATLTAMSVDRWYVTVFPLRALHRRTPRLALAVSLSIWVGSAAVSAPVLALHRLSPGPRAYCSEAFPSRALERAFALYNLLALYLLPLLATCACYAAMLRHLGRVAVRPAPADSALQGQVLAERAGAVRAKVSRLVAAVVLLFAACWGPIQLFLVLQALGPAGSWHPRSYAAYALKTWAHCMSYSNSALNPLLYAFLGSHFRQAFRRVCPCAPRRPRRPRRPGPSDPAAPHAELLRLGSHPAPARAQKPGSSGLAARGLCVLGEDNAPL
Excerpt: Figure 1 Chemical structures and half maximal effective concentration (mean ± SEM, N = 3) of kisspeptin 10 and analogs C2–C7 as measured in a calcium mobilization assay in KiSS1R-transfected HEK293 cell line. Ac: acetyl; Palm-γ-Glu: N-palmitoylated-γ-glutamate, Tz: Triazole; Me: Methyl. TEXT PRINTED IN THE PICTURE: Kp10 1: EC50 (nM): 2.6 ± 2.2 | 2: EC50 (nM): 0.07 ± 0.06 | 3: EC50 (nM): 1.6 ± 0.2 | 4: EC50 (nM): 216 ± 110 | 5: EC50 (nM): 0.22 ± 0.33 | 6: EC50 (nM): 0.33 ± 0.24 | 7: EC50 (nM): 0.04 ± 0.02
Receptor activation was monitored using Fluo4 NW Ca^2+ assay kit in HEK293A cells transfected with the hKiSS1R as previously described[11] (kind gift of professor N. de Roux, INSERM U690, Hôpital Robert Debré, Paris, France). Considering the type of analysis performed, assessment of second messenger activation of a heterologous expressed receptor, the use of potentially misidentified cells has no impact on the result. Basal fluorescence was measured with a plate reader (PolarStar Optima, BMG Labtech). Immediately after the basal reading, the test compound was added at different concentrations and the intracellular Ca^2+ dynamic monitored. To generate concentration activity curves, the mean basal value was subtracted from the value obtained after stimulation. The area under the curve (AUC) was calculated and plotted against concentrations. Concentration activity data points were fitted to sigmoidal curves generated by GraphPad Prism 5 and EC50 automatically calculated.

KiSS1R KO mice = test: circulating LH concentration in KiSS1R KO mice; type: in vivo, mouse
Experimental: Adult male and female KiSS1R KO mice[41] were primed by 5 ip injections of 40 ng/100 μL GnRH at 30 minute intervals and an equivalent volume of saline was injected to wild type mice. This protocol allows the pituitary gland to become more responsive to GnRH in this mouse line as previously reported. Blood samples (4 μL) were collected from the tail tip as previously described, before the first, third and fifth injection, and 30, 105 and 125 minutes after the last injection. C6 was injected immediately after the last blood sampling (0.3 nmoles/200 μL, a dose established in a preliminary experiment) and blood samples taken 20, 40, 60, 90, 120, 180, 300 minutes following injection. After 300 minutes a further injection of GnRH (40 ng/100 μL) was performed in KiSS1R KO mice, and a final blood sample was taken 30 minutes later to confirm the functionality of the HPG axis. Whole blood samples were collected in 150 μL of 0.1 M PBS-0.05% Tween20, mixed and moved to dry ice at the end of each sampling round. Experiments were conducted during the first 8 hours of the light phase to avoid any endogenous LH surges associated with the preovulatory stage of the female reproductive cycle. Data are expressed as means ± SEM (N = 4–7 per group, for details on group size see figure legends).
A sandwich ELISA, adapted from Steyn et al.[42], was used to measure LH concentration in mice. Monoclonal bovine LHβ 518 B7 (1:1,000 dilution) was used as the capture antibody (obtained from Lillian Sibley at University of California Davis), and the standard was NIDDK mouse LH reference preparation from AF Parlow (AFP5306A mouse RIA kit). The assay sensitivity was 0.2 ng/mL and the mean intra-assay coefficient of variation averaged 11%.

ewes [1] = test: LH plasma concentration in ewes during artificial luteal phase (under flugestone acetate), intramuscular injection; type: in vivo, ewe (Ile de France); settings: 15 nmol/ewe im, breeding season, ewes under FA treatment, N = 6
Experimental: (§1) To induce an artificial luteal phase intact cyclic (October–December) or anestrus acyclic (March–June) ewes were implanted with vaginal sponge containing FA (Chronogest, Intervet), a progesterone analog, for 14 days. To compare the activity of Kp, C3, C5 and C6 injection of test drug was performed during the treatment with FA. For the experiments of synchronization and induction of ovulation 24 hours before drug injection the vaginal sponge was removed and the same day a catheter (ID 1.0, L 52 mm, Intraflon 2, Vygon, France) was inserted in the jugular vein. On the day of experiment the test compound was injected intramuscularly and blood samples (2 mL) were taken at various time intervals post-injection: every10 minutes for the first hour, every 20 minutes from 2 to 6 hours, every 60 minutes from 6 to 10 hours and every 120 minutes from 10 hours to the end of the experiment). Data are expressed as means ± SEM (N = 6–12 per group, for details on group size see figure legends).
Plasma LH concentrations in ewe were measured using previously described radioimmunoassays. The assay standard was 1055-CY-LH (equivalent to 2.2 NIH-LH-S1). Intra-assay coefficient of variation averaged 9% and assay sensitivity was 0.2 ± 0.05 ng/mL. Plasma FSH levels were measured using the reagents supplied by Tucker Endocrine Research Institute (Atlanta, Georgia, USA). […]

ewes [2] = test: LH surge / ovulation induction in ewes injected 24 h after flugestone acetate withdrawal (LH, FSH, progesterone); type: in vivo, ewe (Ile de France); settings: 15 nmol/ewe im
Experimental: as §1
Plasma LH concentrations in ewe were measured using previously described radioimmunoassays. […] Plasma FSH levels were measured using the reagents supplied by Tucker Endocrine Research Institute (Atlanta, Georgia, USA). […]
Progesterone was measured by an ELISA assay on 96-well plate (Immuno Nunc Maxisorp C96) coated with goat anti-mouse IgG (Uptima UP462140, Interchim) overnight at 4 °C. […]

[3] = KiSS1R-transfected HEK293 cell line, Fluo4 NW, AUC fitted, mean ± SEM, N = 3, read-out: EC50, calcium mobilization
[4] = 40 ng GnRH 300 min after C6, sample 30 min later
[5] = 5 ip injections of 40 ng GnRH at 30 min intervals, 15 minutes post injection

`CNC(=N)NCCC[C@H](NC(=O)[C@H](CC(C)C)n1cc(CNC(=O)[C@H](Cc2ccccc2)NC(=O)[C@H](CO)NC(=O)[C@H](CC(N)=O)NC(=O)[C@H](Cc2c[nH]c3ccccc23)NC(=O)[C@H](CC(N)=O)NC(=O)[C@H](Cc2ccc(O)cc2)NC(C)=O)nn1)C(=O)N[C@@H](Cc1ccc(O)cc1)C(N)=O` [C7] (Ac-YNWNSF[Glyψ(1,4-Tz)Leu][Arg(Me)]Y-NH2) showed an EC50 (hKiSS1R; [3]) of 0.04 ± 0.02 nM.

With “gonadotropin releasing hormone (QHWSYGLRPG; ends and bridges not checked; UniProt P13562 22-31, looked up) [GnRH, hormone injected ip to prime KiSS1R KO mice and check pituitary function]” the “LH after further GnRH injection at end of experiment, KO females” value (KiSS1R KO mice; [4]) was 4.8 ± 1.9 ng/mL, the “LH after further GnRH injection at end of experiment, KO males” value (KiSS1R KO mice; [4]) was 3.2 ± 0.4 ng/mL and the “LH after GnRH priming, KO females” value (KiSS1R KO mice; [5]) was 2.3 ± 0.8 ng/mL. For the same compound, the “LH after GnRH priming, KO males” value (KiSS1R KO mice; [5]) was 2.7 ± 0.6 ng/mL and the “fold increase of circulating LH after GnRH priming” value (KiSS1R KO mice; KiSS1R KO mice, 15 minutes post injection) was 3–6 fold.

`CCCCCCCCCCCCCCCC(=O)N[C@@H](CCC(=O)N[C@@H](Cc1ccc(O)cc1)C(=O)N[C@@H](CC(N)=O)C(=O)N[C@@H](Cc1c[nH]c2ccccc12)C(=O)N[C@@H](CC(N)=O)C(=O)N[C@@H](CO)C(=O)N[C@@H](Cc1ccccc1)C(=O)NCc1cn([C@@H](CC(C)C)C(=O)N[C@@H](CCCNC(=N)NC)C(=O)N[C@@H](Cc2ccc(O)cc2)C(N)=O)nn1)C(=O)O` [C6] ({Palmitoyl-γGlu}-YNWNSF[Glyψ(1,4-Tz)Leu][Arg(Me)]Y-NH2) was tested, and the “enhancement in EC50 compared to C3” value (hKiSS1R; C6 versus first generation analog C3) was ~ 5 fold and the EC50 (hKiSS1R) was 0.33 ± 0.24 nM.

In the case of YNWNSFGLRY-NH2 [Kp10], the EC50 (hKiSS1R; [3]) is reported as 2.6 ± 2.2 nM, the “effect on LH plasma concentration” value (ewes [1]) is reported as “negligible effect; also recorded: no effect on LH basal level” and the “effect on LH plasma concentration, non-breeding season” value (ewes [2]; 24 h after ending FA treatment, N = 6) is reported as “no increase”. For the same compound, the progesterone level (ewes [2]; non-breeding season, 1 ng mL^−1 threshold = ovulation hallmark) was under 1 ng/mL.

Compound `CCCCCCCCCCCCCCCC(=O)N[C@@H](CCC(=O)N[C@@H](Cc1ccc(O)cc1)C(=O)N[C@@H](CC(N)=O)C(=O)N[C@@H](Cc1c[nH]c2ccccc12)C(=O)N[C@@H](CC(N)=O)C(=O)N[C@@H](CO)C(=O)N[C@@H](Cc1ccccc1)C(=O)NCc1cn([C@@H](CC(C)C)C(=O)N[C@@H](CCCNC(=N)N)C(=O)N[C@@H](Cc2ccc(O)cc2)C(N)=O)nn1)C(=O)O` [C5] ({Palmitoyl-γGlu}-YNWNSF[Glyψ(1,4-Tz)Leu]RY-NH2) has an EC50 (hKiSS1R; [3]) of 0.22 ± 0.33 nM.
